Data taken from patent publication US8946190B2, “Medium-chain length fatty acids, salts and triglycerides in combination with gemcitabine for treatment of pancreatic cancer” (priority 2007, dated 2015).

How the values were obtained:
Panc02 cells = test: In vitro cytotoxicity (MTT) on pancreatic cancer cells; format: cell-based; details: Mus musculus, 24 h cell culture
Protocol: This assay was performed to determine the effect of compounds of the present invention on cell cytotoxicity. Panc02 cells were incubated in presence or absence of compounds in RPMI-1640 conditioned media. After 24 hours incubation, 50 μl of 3-(4,5-dimethyl-2-thiazyl)-2,5-diphenyl-2H-tetrazolium bromide ([…]; 2 mg/ml) was added and further incubated for 4 hours. The supernatant was discarded and 100 μl of dimethylsulfoxide (DMSO) was added. Absorbance was read at 570 nm with an ELISA Tecan Sunrise plate reader. The control group consisted of cells without compounds and is referred to as 100% of viable cells. IC50 was determined using Prism software.

[1] = test system: metastatic pancreatic cancer; details: pancreatic cancer patients after metastasis; cited from earlier work
[2] = test system: orthotopic syngeneic Panc02 pancreatic tumor; test: Panc02 mouse orthotopic pancreatic cancer model, survival; format: in vivo, C57BL/6 mice; design: % Survival: concentration or dose not given beside the values; details: for % Survival: Table 2
Protocol: At day 0, 50 μl of 1×10^6 viable Panc02 cells per ml were injected onto the pancreas to produce orthotopic tumors in 6- to 8-week old C57BL/6 mice. Mice were then treated every day with oral administration of vehicle (negative control), or sodium decanoate and with intraperitoneal injection of gemcitabine (50 mg/kg) once a week (day 1, 8, 15, etc.).
The effect of gemcitabine and tricaprin in combination with gemcitabine in orthotopic pancreatic Panc02 cancer was determined as described in Example 3.

[3] = test system: syngeneic Panc02 pancreas tumor; test: Panc02 mouse pancreatic cancer model, intradermal syngeneic tumor growth; format: in vivo, C57BL/6 mice; details: for anticancer activity in the early phase of the treatment: given alone
Protocol: The syngeneic Panc02 is a pancreatic adenocarcinoma tumor cell line obtained from NCI (0507232). Panc02 cells are positive for Ki-Ras, p53, HerNEU and CDK. Panc02 were grown in RPMI-1640 containing 10% fetal bovine serum. At day 0, 50 μl of 7.5×10^5 viable Panc02 cells were intradermally injected to produce localized tumors in 6- to 8-week old C57BL/6 mice. The animals were then serially monitored by manual palpation for evidence of tumor. Mice were then treated every day with oral administration of vehicle (negative control), or sodium decanoate and with intraperitoneal injection of gemcitabine (50 mg/kg) at day 21, 28, 35 and 42. Mice were sacrificed between days 36 to 50. Serial tumor volume was obtained by bi-dimensional diameter measurements with calipers, using the formula 0.4 (a×b^2) where “a” was the major tumor diameter and “b” the minor perpendicular diameter. Tumors were palpable, in general, 3-5 days post-inoculation. Percentage of tumor growth is reported as the percentage of growth of the pancreatic tumor on a given day relative to that growth which is observed on the first day of treatment with medium-chain length fatty acid, or sodium salt or triglyceride or vehicle (control). T/C is defined as: Treated Tumor Growth CYO/Control Tumor Growth (%).
The effect of sodium dodecanoate and gemcitabine in pancreatic Panc02 cancer was determined as described in Example 2.

[4] = test system: syngeneic Panc02 pancreas tumor; test: as above; format: in vivo, C57BL/6 mice

CCCCCCCCCC(=O)O [Decanoic acid]
IC50 (Panc02 cells): 630 µM

Nc1ccn([C@@H]2O[C@H](CO)[C@@H](O)C2(F)F)c(=O)n1 [Gemcitabine]
one-year survival [1]: 18% | survival compared with mice that had received vehicle ([2]; FIG. 5): prolonged survival | Median survival ([2]; FIG. 5, gemcitabine 50 mg/kg once a week, sodium decanoate oral 200 mg/kg every day): 71 days | survival compared with mice that had received vehicle ([2]; FIG. 7): prolonged survival | Median survival ([2]; FIG. 7, gemcitabine 50 mg/kg, tricaprin oral 600 mg/kg): 53.5 days | % Survival ([2]; day 58): 86% | % Survival ([2]; day 72): 42% | % Survival ([2]; day 83): 28% | % Survival ([2]; day 87): 14% | % Survival ([2]; day 92): 0% | % Survival ([2]; day 92, listed as gemcitabine): all mice are dead | inhibition of tumor growth (p<0.05) ([3]; FIG. 1, gemcitabine 50 mg/kg, day 27 to 34): significant inhibition | inhibition of tumor growth (p<0.05) ([3]; FIG. 2, gemcitabine alone, day 23 to 37): significant (p<0.05) inhibition | anticancer activity in the early phase of the treatment ([3]; FIG. 3): did not display anticancer activities | anticancer activity in the early phase of the treatment ([3]; FIG. 4): did not display anticancer activities | inhibition of tumor growth (p<0.05) ([3]; FIG. 6, gemcitabine 50 mg/kg, day 44): significant inhibition | mortality ([3]; increased concentration of gemcitabine): mortality is observed | T/C ([4]; FIG. 3, gemcitabine 25 mg/kg alone): > 40 | inhibition of tumor growth (p<0.05) ([4]; FIG. 3, gemcitabine 25 mg/kg, day 39): significant inhibition | T/C ([4]; FIG. 4, gemcitabine 10 mg/kg alone): no T/C<40 | inhibition of tumor growth (p<0.05) ([4]; FIG. 4, gemcitabine 10 mg/kg, day 41): significant inhibition

CCCCCCCCCC(=O)[O-].[Na+] [PBI-1402]
anticancer activity in the early phase of the treatment ([3]; FIG. 3): did not display anticancer activities | anticancer activity in the early phase of the treatment ([3]; FIG. 4): did not display anticancer activities

CCCCCCCCCC(=O)[O-].[Na+] [Sodium decanoate]
IC50 (Panc02 cells): 520 µM | inhibition of tumor growth (p<0.05) ([3]; FIG. 1, sodium decanoate oral 100 mg/kg, day 23 to 44): significant inhibition | tumor growth inhibition compared to control (p<0.05) ([3]; FIG. 2, sodium decanoate 400 mg/kg, day 23 to 37): significant | inhibition of tumor growth (p<0.05) ([3]; FIG. 2, sodium decanoate oral 100, 200 and 400 mg/kg): significant (p<0.05) inhibition of the tumor growth in a dose dependent fashion

CCCCCCCCCCCC(=O)[O-].[Na+] [Sodium dodecanoate]
IC50 (Panc02 cells): 150 µM | inhibition of tumor growth (p<0.05) ([3]; FIG. 6, sodium dodecanoate oral 200 mg/kg, day 44): significant inhibition
